According to patent publication US11560391B2, “Sulfonylurea compounds as inhibitors of interleukin-1 activity” (Genentech, Inc., priority 2018, dated 2023):

What was measured:
THP-1 ASC-GFP cells = test: THP-1 ASC-GFP speck assay (NLRP3 inflammasome activation, nigericin); assay type: cell-based; conditions: THP1-ASC-GFP; PMA-differentiated, LPS primed, 10 μM nigericin
Method: THP-1 ASC-GFP cell line was purchased from Invivogen, San Diego, for infammasome activation assay. THP-1 ASC-GFP cells stably express a 37.6 kDa ASC::GFP fusion protein that enables monitoring of spec formation by microscopy after activation of NLRP3 dependent inflammasome pathway. Cells were maintained at a density of 600,000 cells/mL in growth media consisting of RPMI 1640, 2 mM L-glutamine, 25 mM HEPES and 10% heat inactivated fetal bovine serum at 37° C. and 5% CO2. Cells were passaged every 3-4 days and used for assays for up to 20 passages.
THP-1 ASC-GFP cells were collected by centrifuging cells at 800 RPM for 5 minutes. Cell culture supernatant was removed and cells were re-suspended in fresh media at density of 1×10^6 cells/mL in assay media consisting of RPMI 1640, 2 mM L-glutamine, 25 mM HEPES and 10% heat inactivated fetal bovine serum. Phorbol 12-myristate 13-acetate (PMA) (Invivogen,tlrl-pma) was added to the cell suspension at a final concentration of 500 ng/ml and mixed thoroughly. 40,000 cells were added per well of a 384 well plate and differentiated into macrophages overnight at 37° C. and 5% CO2. Cells were primed with 1 μg/mL of lipopolysaccharide (Invivogen Ultrapure lipopolysaccharide from E. coli, tlrl-3pelps) in assay media for 3 hours at 37° C. and 5% CO2. After priming, media was removed and THP-1 ASC-GFP cells were preincubated with serially diluted test compounds with starting concentration of 40 μM followed by 2-fold dilution for a 20-point curve or vehicle (DMSO) for 30 min in assay media at 37° C. and 5% CO2. Cells were then stimulated with 10 μM nigericin (Invivogen, tlrl-nig-5) for 90 min at 37° C. and 5% CO2 to activate NLRP3 dependent inflammasome pathway and spec formation. After stimulation, cells were fixed with 4.8% paraformaldehyde (Electron Microscopy Sciences #15710-S) and incubated at room temperature for 15 min. Cells were then washed 3-times with 100 μL of phosphate buffered saline and permeabilized in the presence of premeablization/block buffer for 20 min at room temperature. Cells were then washed 3-times with 100 μL phosphate buffered saline and incubated for 1 hr at room temperature in the presence of hoechst. After staining with Hoechst, cells were washed 3-times with 100 μL phosphate buffered saline and imaged for ASC spec formation.
THP-1 ASC-GFP cells were imaged in 488 and Hoechst channels. Hoechst channel was used for cell count and 488 channel was used to identify number of GFP ASC specks in imaged fields. Percentage of cells with a spec was calculated by dividing the number of GFP positive spots by total number of cells.

NLRP3 inflammasome = biological target: T1, NLRP3 inflammasome (Homo sapiens, UniProt Q96P20); test: NLRP3 inflammasome activation assay in LPS-primed, nigericin-stimulated PBMCs, IL-1β release; assay type: cell-based; conditions: PBMC, LPS priming, 10 μM nigericin; read-out: PMBC IL-1β IC50
T1 construct: freshly isolated from human peripheral blood from healthy donors; StemCells Technologies; host or cells: primary human PBMCs
T1 sequence (Q96P20 whole entry): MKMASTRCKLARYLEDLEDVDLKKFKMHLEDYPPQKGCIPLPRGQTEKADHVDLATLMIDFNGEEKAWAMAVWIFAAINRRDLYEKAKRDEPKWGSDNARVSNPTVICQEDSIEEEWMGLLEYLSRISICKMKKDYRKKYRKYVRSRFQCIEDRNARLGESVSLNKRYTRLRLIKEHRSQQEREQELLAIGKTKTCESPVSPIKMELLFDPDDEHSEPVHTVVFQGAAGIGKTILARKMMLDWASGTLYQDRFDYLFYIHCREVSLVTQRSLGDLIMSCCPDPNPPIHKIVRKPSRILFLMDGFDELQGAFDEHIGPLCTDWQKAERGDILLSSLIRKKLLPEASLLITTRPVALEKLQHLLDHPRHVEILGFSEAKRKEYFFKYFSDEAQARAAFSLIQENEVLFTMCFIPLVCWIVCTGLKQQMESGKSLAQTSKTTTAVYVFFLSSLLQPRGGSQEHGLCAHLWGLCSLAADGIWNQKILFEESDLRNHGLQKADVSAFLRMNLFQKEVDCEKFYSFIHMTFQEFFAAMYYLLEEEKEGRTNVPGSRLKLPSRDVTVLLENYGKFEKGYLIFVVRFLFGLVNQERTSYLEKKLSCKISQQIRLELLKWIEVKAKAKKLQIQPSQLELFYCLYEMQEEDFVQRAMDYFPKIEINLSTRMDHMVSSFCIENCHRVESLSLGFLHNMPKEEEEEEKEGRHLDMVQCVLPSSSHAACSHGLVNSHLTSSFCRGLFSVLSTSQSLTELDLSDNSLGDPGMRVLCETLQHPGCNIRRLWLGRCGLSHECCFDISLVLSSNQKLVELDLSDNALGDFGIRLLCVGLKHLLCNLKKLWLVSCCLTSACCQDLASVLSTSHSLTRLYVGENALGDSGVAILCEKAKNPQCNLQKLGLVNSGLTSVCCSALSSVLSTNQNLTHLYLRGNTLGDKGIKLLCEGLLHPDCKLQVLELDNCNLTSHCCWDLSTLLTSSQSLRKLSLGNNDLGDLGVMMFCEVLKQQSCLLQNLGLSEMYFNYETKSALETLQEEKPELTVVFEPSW
Method: Some of the following assays were used to determine the inhibitory activity of the compounds on the NLRP3 inflammasome using a common inflammasome activation stimuli-nigericin.
(§1) Human peripheral blood mononuclear cells (PBMCs), consisting of lymphocytes (T, B and NK cells), monocytes and dendritic cells, are freshly isolated from human peripheral blood from healthy donors. Cells are obtained through an IRB approved donor program by iXCells Biotechnologies where all the donors are tested for bacterial and viral infections. Cells are purified from peripheral blood using ficoll gradient centrifugation.
(§2) Fresh or cryopreserved PMBCs are seeded in V-bottom 96-well plate at 0.5-1×10^5 cells per well and incubated overnight at 37° C. with 5% CO2 in RPMI 1640 medium with GlutaMAX supplement, 4.5 g/L D-glucose, 10% Fetal Bovine Serum (FBS), […] Sodium Pyruvate, 1% Penicillin/Streptomycin, 10 mM HEPES and 0.05 mM of […]. Freshly isolated or cryopreserved KCs cells are seeded in flat-bottom 96-well plates at 0.6-1.5×10^5 cells/well and incubated overnight at 37° C., 5% CO2 in RPMI 1640 Medium with GlutaMAX supplement, FBS, 1% Penicillin/Streptomycin and 10 mM HEPES. The following day, the cells are primed with 100 ng/mL of lipopolysaccharides (LPS; Sigma Aldrich) in FBS-free RPMI 1640 for 3 h. After the priming step, the media is removed and PBMCs are pre-incubated with serial concentrations of test compounds (0.00017-10 uM) or vehicle (DMSO) for 30 min in FBS-free media prior to addition of the NLRP3 activator. Cells are then stimulated with 10 μM Nigericin (Sigma Aldrich; InvivoGen) for 1.5 h. Plates were centrifuged at 1,500 rpm for 3 minutes to pellet cells and supernatant was transferred into new plates for subsequent experiments.
For ELISA assays cells are seeded into 96-well plates. Post study, supernatants are removed and the levels of mature IL-1β, IL18 and TNFα (Quantikine ELISA, R&D systems) are measured in cell conditioned media by ELISA according to manufacturer's instructions.
Human frozen PBMCs were purchased from StemCells Technologies. Cells were rapidly thawed in 37° C. water bath and resuspended in fresh assay media consisting of RPMI 1640 Medium containing 1% sodium pyruvate, 10 mM HEPES, 2.5 g/L glucose and 55 μM 2-Mercaptoethanol. Cell density was adjusted to 8.1×10^5 cells/mL. Cells were primed by adding lipopolysaccharide (Invivogen Ultrapure lipopolysaccharide from E. coli, tlrl-3pelps) at a final concentration of 100 ng/mL in cell suspension. 37 μL of cell suspension with LPS was seeded per well of a 384 well plate and incubated for 3 hours at 37° C. and 5% CO2. After priming, PBMCs were preincubated with serially diluted test compounds with starting concentration of 40 μM followed by 2-fold dilution for a 20-point curve or vehicle (DMSO) for 30 min in assay media at 37° C. and 5% CO2. Cells were then stimulated with 10 μM nigericin (Invivogen, tlrl-nig-5) for 90 min at 37° C. and 5% CO2 to activate NLRP3 dependent inflammasome pathway and IL-1β release in cell culture supernatant. Cells were centrifuged at 1200 RPM for 1 min and 40 μL of supernatant was transferred into fresh plates and stored at −80° C. until IL-1β analysis.
16 μL of supernatant was added to white 384 well HTRF plates, followed by addition of 4 μL of HTRF cocktail in each well. Plates were quickly centrifuged, sealed and incubated overnight at room temperature. Next day, HTRF signal was read on a Pherastar and ratio of 665/620 was calculated based on manufacturer's protocol to obtain concentration of IL-1β in cell culture supernatant.

PBMCs = test: CTG (CellTiter-Glo) viability assay of compound-treated LPS and nigericin stimulated PBMCs; assay type: cell-based, human; conditions: Homo sapiens, PBMC; read-out: PMBC CTG IC50
Method: as §1, §2
Viability of compound treated cells is measured using CellTiter-Glo® assay (Promega, Madison, Wis.) that measures the ATP content of cells which is proportional to the number of live cells within a well. This is a counter-screen to establish that the reduction of IL-1β levels in LPS and nigericin stimulated and compound treated cells is not due to cytotoxicity, but rather through the inhibition of the inflammasome pathway. Compounds inhibiting NRLP3 inflammasome activation ultimately increase the viability of LPS and nigericin stimulated cells by blocking NLRP3 mediated pyroptosis that would otherwise lead to cell lysis.

Row | SMILES | IC50 (THP-1 ASC-GFP cells) [nM] | IC50 (NLRP3 inflammasome) [nM] | IC50 (PBMCs) [nM]
1 | CC(C)c1nn(CC(F)F)c(C(C)C)c1NC(=O)NS(=O)(=O)c1cnn2c1OCC(C)(C)C2 [Example 57, N-((1-(2,2-difluoroethyl)-3,5-diisopropyl-1H-pyrazol-4-yl)carbamoyl)-6,6-dimethyl-6,7-dihydro-5H-pyrazolo[5,1-b][1,3]oxazine-3-sulfonamide, ammonia] | 560 | – | –
2 | CC(C)n1nc2c(c1NC(=O)NS(=O)(=O)c1cnn3c1OCC(C)(C)C3)CCC2 [Example 61, N-((2-isopropyl-2,4,5,6-tetrahydrocyclopenta[c]pyrazol-3-yl)carbamoyl)-6,6-dimethyl-6,7-dihydro-5H-pyrazolo[5,1-b][1,3]oxazine-3-sulfonamide] | 900 | – | –
3 | CC(C)c1nn(C(F)(F)F)c(C(C)C)c1NC(=O)NS(=O)(=O)c1cnn2c1OCC(C)(C)C2 [Example 79, N-((3,5-diisopropyl-1-(trifluoromethyl)-1H-pyrazol-4-yl)carbamoyl)-6,6-dimethyl-6,7-dihydro-5H-pyrazolo[5,1-b][1,3]oxazine-3-sulfonamide] | 740 | – | –
4 | CC(C)c1cc(C(F)(F)F)nc(C(C)C)c1NC(=O)NS(=O)(=O)c1cnn2c1OCC(C)(C)C2 [Example 82, N-((2,4-diisopropyl-6-(trifluoromethyl)pyridin-3-yl)carbamoyl)-6,6-dimethyl-6,7-dihydro-5H-pyrazolo[5,1-b][1,3]oxazine-3-sulfonamide] | 1400 | – | –
5 | CCn1nc(C(C)C)c(NC(=O)NS(=O)(=O)c2cnn3c2OCC(C)(C)C3)c1C(C)C [Example 65, N-((1-ethyl-3,5-diisopropyl-1H-pyrazol-4-yl)carbamoyl)-6,6-dimethyl-6,7-dihydro-5H-pyrazolo[5,1-b][1,3]oxazine-3-sulfonamide, ammonia] | 1400 | – | –
6 | CC(C)c1cc(OC2CC2)nc(C(C)C)c1NC(=O)NS(=O)(=O)c1cnn2c1OCCC2 [Example 81, Sodium N-((6-cyclopropoxy-2,4-diisopropylpyridin-3-yl)carbamoyl)-6,7-dihydro-5H-pyrazolo[5,1-b][1,3]oxazine-3-sulfonamide] | 8200 | – | –
7 | CC(C)c1cc(OC(F)(F)F)nc(C(C)C)c1NC(=O)NS(=O)(=O)c1cnn2c1OCCC2 [Example 71, Sodium N-((2,4-diisopropyl-6-(trifluoromethoxy)pyridin-3-yl)carbamoyl)-6,7-dihydro-5H-pyrazolo[5,1-b][1,3]oxazine-3-sulfonamide] | 1900 | – | –
8 | CC(C)c1nn(CC(F)(F)F)c(C(C)C)c1NC(=O)NS(=O)(=O)c1cnn2c1OCCC2 [Example 58, N-((3,5-diisopropyl-1-(2,2,2-trifluoroethyl)-1H-pyrazol-4-yl)carbamoyl)-6,7-dihydro-5H-pyrazolo[5,1-b][1,3]oxazine-3-sulfonamide, ammonia] | 200 | – | –
9 | CC(C)c1nn(CC(F)(F)F)c(C(C)C)c1NC(=O)NS(=O)(=O)c1cnn2c1OCC(C)(C)C2 [Example 75, N-((3,5-diisopropyl-1-(2,2,2-trifluoroethyl)-1H-pyrazol-4-yl)carbamoyl)-6,6-dimethyl-6,7-dihydro-5H-pyrazolo[5,1-b][1,3]oxazine-3-sulfonamide, ammonia] | 420 | – | –
10 | CC(C)c1nn(C)c(C(C)C)c1NC(=O)NS(=O)(=O)c1cnn2c1OCC(C)(C)C2 [Example 68, N-((3,5-diisopropyl-1-methyl-1H-pyrazol-4-yl)carbamoyl)-6,6-dimethyl-6,7-dihydro-5H-pyrazolo[5,1-b][1,3]oxazine-3-sulfonamide, ammonia] | 1500 | – | –
11 | O=C(NC1C2CC3CC(C2)CC1C3)NS(=O)(=O)c1cnn2c1OCCC2 (stereo not shown) [Example 3, N-(((1r,3r,5r,7r)-adamantan-2-yl)carbamoyl)-6,7-dihydro-5H-pyrazolo[5,1-b][1,3]oxazine-3-sulfonamide] | – | 2080 | > 10000

Second part, led by results:

Row | IC50 (THP-1 ASC-GFP cells) [nM] | IC50 (NLRP3 inflammasome) [nM] | SMILES | IC50 (PBMCs) [nM]
12 | 4100 | – | CN[C@@H]1COc2c(S(=O)(=O)NC(=O)Nc3c(C(C)C)nn(CC(F)F)c3C(C)C)cnn2C1 [Example 70a, (S)—N-((1-(2,2-difluoroethyl)-3,5-diisopropyl-1H-pyrazol-4-yl)carbamoyl)-6-(methylamino)-6,7-dihydro-5H-pyrazolo[5,1-b][1,3]oxazine-3-sulfonamide, ammonia] | –
13 | 640 | – | CO[C@@H]1COc2c(S(=O)(=O)NC(=O)Nc3c(C(C)C)nn(CC(F)F)c3C(C)C)cnn2C1 [Example 62a, (S)—N-((1-(2,2-difluoroethyl)-3,5-diisopropyl-1H-pyrazol-4-yl)carbamoyl)-6-methoxy-6,7-dihydro-5H-pyrazolo[5,1-b][1,3]oxazine-3-sulfonamide, ammonia] | –
14 | 170 | – | CO[C@@H]1COc2c(S(=O)(=O)NC(=O)Nc3c(C(C)C)nn(CC(F)(F)F)c3C(C)C)cnn2C1 [Example 59a, (S)—N-((3,5-diisopropyl-1-(2,2,2-trifluoroethyl)-1H-pyrazol-4-yl)carbamoyl)-6-methoxy-6,7-dihydro-5H-pyrazolo[5,1-b][1,3]oxazine-3-sulfonamide, ammonia] | –
15 | 71 | – | CO[C@@H]1COc2c(S(=O)(=O)NC(=O)Nc3c(C(C)C)nn(C(F)(F)F)c3C(C)C)cnn2C1 [Example 78a, (S)—N-((3,5-diisopropyl-1-(trifluoromethyl)-1H-pyrazol-4-yl)carbamoyl)-6-methoxy-6,7-dihydro-5H-pyrazolo[5,1-b][1,3]oxazine-3-sulfonamide] | –
